Laboratory results as given in article PMC9310613, “Selenocarbamates As a Prodrug‐Based Approach to Carbonic Anhydrase Inhibition” (Chemmedchem, 2022).
Read-outs that look alike come from different tables or passages of the source.

Legend:
Test in all cases: stopped-flow CO2 hydration assay
Type in all cases: biochemical
hCA I = biological target: T1, hCA I (Homo sapiens, UniProt P00915)
T1 construct: gene CA1; recombinant, obtained in house
Excerpt: stopped-flow CO2 hydration assay on hCA I

hCA II [1] = biological target: T2, hCA II (Homo sapiens, UniProt P00918)
T2 construct: gene CA2; recombinant, obtained in house
Excerpt: stopped-flow CO2 hydration assay on hCA II

hCA II [2] = biological target: T2, hCA II; details: read-out: hCA I

T1 sequence (P00915 2-261): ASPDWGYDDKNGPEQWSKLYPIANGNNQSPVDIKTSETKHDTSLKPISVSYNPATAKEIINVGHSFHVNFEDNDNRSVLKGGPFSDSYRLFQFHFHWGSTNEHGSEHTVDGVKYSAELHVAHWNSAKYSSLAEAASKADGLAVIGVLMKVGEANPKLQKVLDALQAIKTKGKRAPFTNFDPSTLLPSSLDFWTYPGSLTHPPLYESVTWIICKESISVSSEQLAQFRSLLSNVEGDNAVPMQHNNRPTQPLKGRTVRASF

For Cc1cc(C)cc(NC(=O)[Se][C@@H]2CCCC[C@H]2O)c1 (relative stereo) [3s, 3 s], the Ki (hCA I) was 74.3 µM and the Ki (hCA II [1]) was 84.6 µM.

In the case of NC(=O)[Se]c1ccccc1 [3j, 1‐(phenylselanyl)formamide], the Ki (hCA I) is reported as 9.8 µM and the Ki (hCA II [1]) is reported as 6.8 µM.

Compound COc1cccc(NC(=O)[Se]c2ccccc2)c1 [3d, 3 d] has a Ki (hCA I) of 49.3 µM and a Ki (hCA II [1]) of 7.9 µM.

Compound Cc1cc(C)cc(NC(=O)[Se]c2ccccc2)c1 [3a, 3 a] has a Ki (hCA I) of 49.5 µM and a Ki (hCA II [1]) of 5.3 µM.

Cc1ccc([Se]C(=O)Nc2ccc(Br)cc2)cc1 [3k, 3 k] gave a Ki (hCA I) of 38.6 µM and a Ki (hCA II [1]) of 11.6 µM.

For Cc1ccc(S(=O)(=O)N[C@@H](C)C[Se]C(=O)Nc2cc(C)cc(C)c2)cc1 [3u, 3 u], the Ki (hCA I) was over 100 µM and the Ki (hCA II [2]) was over 100 µM.

For O=C(NCc1ccco1)[Se][C@@H]1CCCC[C@H]1O (relative stereo) [3t, 3 t], the Ki (hCA I) was 67.4 µM and the Ki (hCA II [1]) was 83.4 µM.

O=C(Nc1ccc(Cl)cc1)[Se]c1ccccc1 [3g, 3 g] was tested, and the Ki (hCA I) was 42.5 µM and the Ki (hCA II [1]) was 13.1 µM.

Compound O=C(Nc1ccccc1F)[Se]c1ccccc1 [3e, 3 e] has a Ki (hCA I) of 30.8 µM and a Ki (hCA II [1]) of 9.2 µM.

Work on CC(C)OCC(O)C[Se]C(=O)NC12CC3CC(CC(C3)C1)C2 (racemic) [3r, 3 r] yielded a Ki (hCA I) of 92.7 µM and a Ki (hCA II [1]) of 79.4 µM.

Work on O=C(Nc1ccccc1)[Se]c1ccccc1 [3b, 3 b] yielded a Ki (hCA I) of 40.4 µM and a Ki (hCA II [1]) of 4.1 µM.

CCCCCCCCCCCC[Se]C(=O)Nc1ccc(Br)cc1 [3m, 3 m] was tested, and the Ki (hCA I) was 92.1 µM and the Ki (hCA II [1]) was 87.4 µM.

CCCCCCCCCCCC[Se]C(N)=O [3n, 3 n] gave a Ki (hCA I) of 90.3 µM and a Ki (hCA II [1]) of 85.2 µM.

Work on O=C(Nc1ccc(Br)cc1)[Se]c1ccccc1 [3h, 3 h] yielded a Ki (hCA I) of 13.8 µM and a Ki (hCA II [1]) of 8.6 µM.

C=CCOCC(O)C[Se]C(=O)Nc1cc(C)cc(C)c1 (racemic) [3q, 3 q] showed a Ki (hCA I) of 67.5 µM and a Ki (hCA II [1]) of 79.3 µM.

With Cc1ccc(NC(=O)[Se]c2ccccc2)cc1 [3c, 3 c] the Ki (hCA I) was 25.9 µM and the Ki (hCA II [1]) was 8.4 µM.

For Cc1ccccc1[Se]C(=O)Nc1ccc(Br)cc1 [3l, 3 l], the Ki (hCA I) was 13.4 µM and the Ki (hCA II [1]) was 8 µM.

Compound O=C(Nc1ccc(Br)cc1)[Se]Cc1ccccc1 [3p, 3 p] has a Ki (hCA I) of 85 µM and a Ki (hCA II [1]) of 39.9 µM.

In the case of O=C(Nc1ccc(F)cc1)[Se]c1ccccc1 [3f, 3 f], the Ki (hCA I) is reported as 15.3 µM and the Ki (hCA II [1]) is reported as 9.4 µM.

In the case of O=C(NCc1ccco1)[Se]c1ccccc1 [3i, 3 i], the Ki (hCA I) is reported as 8.8 µM and the Ki (hCA II [1]) is reported as 40.4 µM.
